The term MIC denotes the lowest concentration that inhibits growth of the organism.

Six compounds from ChEMBL document CHEMBL4038308, “Lipophosphonoxins II: Design, Synthesis, and Properties of Novel Broad Spectrum Antibacterial Agents” (J Med Chem, 2017) can be followed below.

In brackets after ≈: the same amount, converted by molar mass.

For assay [1], the system named is Stenotrophomonas maltophilia. Nature of the assay: Antibacterial activity against Stenotrophomonas maltophilia S2-23 after 24 hrs by microdilution method. It counts as functional. As to conditions: S2-23, 24 h. Background: In broth dilution the organism is exposed to a series of concentrations in liquid medium.
Assay [2] deals with Pseudomonas aeruginosa. Description: Antibacterial activity against Pseudomonas aeruginosa 16575 after 24 hrs by microdilution method. Particulars: Pseudomonas aeruginosa, 16575, 24 h. It counts as functional.
The test system of assay [3] is Staphylococcus aureus. Nature of the assay: Antibacterial activity against Staphylococcus aureus CCM 4223 after 24 hrs by microdilution method. It counts as functional. As to conditions: CCM 4223, 24 h.
Assay [4] relates to Pseudomonas aeruginosa. Description: Antibacterial activity against Pseudomonas aeruginosa CCM 3955 after 24 hrs by microdilution method. Particulars: CCM 3955, 24 h. It counts as functional.
The test system of assay [5] is Staphylococcus epidermidis. Description: Antibacterial activity against Staphylococcus epidermidis 8700/B after 24 hrs by microdilution method. It counts as functional.
Assay [6] relates to Burkholderia multivorans. Nature of the assay: Antibacterial activity against Burkholderia multivorans after 24 hrs by microdilution method. It counts as functional.
In assay [7] the test system is Streptococcus agalactiae. Description: Antibacterial activity against Streptococcus agalactiae after 24 hrs by microdilution method. It counts as functional.
The test system of assay [8] is Enterococcus faecium. Description: Antibacterial activity against vancomycin-resistant Enterococcus faecium 419/ana clinical isolates after 24 hrs by microdilution method. It counts as functional.
Assay [9] concerns Escherichia coli. Nature of the assay: Antibacterial activity against Escherichia coli 16702 after 24 hrs by microdilution method. It counts as functional. As to conditions: Escherichia coli, 16702, 24 h.
Assay [10] concerns Acinetobacter baumannii. Description: Antibacterial activity against Acinetobacter baumannii A3-08 after 24 hrs by microdilution method. It counts as functional. Particulars: A3-08, 24 h.
The subject of assay [11] is Salmonella enteritidis. Nature of the assay: Antibacterial activity against Salmonella enteritidis S2-25 after 24 hrs by microdilution method. It counts as functional, Salmonella enterica subsp. enterica serovar Enteritidis. Particulars: Salmonella enterica, S2-25, 24 h.
In assay [12] the test system is Staphylococcus haemolyticus. Description: Antibacterial activity against fluoroquinolne-resistant Staphylococcus haemolyticus 16568 after 24 hrs by microdilution method. It counts as functional. As to conditions: Staphylococcus haemolyticus, 16568, 24 h.
For assay [13], the system named is Enterococcus faecalis. Nature of the assay: Antibacterial activity against Enterococcus faecalis CCM 4224 after 24 hrs by microdilution method. It counts as functional. Particulars: CCM 4224, 24 h.
For assay [14], the system named is Escherichia coli. Nature of the assay: Antibacterial activity against Escherichia coli CCM 3954 after 24 hrs by microdilution method. Particulars: CCM 3954, 24 h. It counts as functional.
Assay [15] concerns Staphylococcus aureus. Description: Antibacterial activity against methicillin-resistant Staphylococcus aureus 4591 clinical isolates after 24 hrs by microdilution method. It counts as functional. Particulars: Staphylococcus aureus, 4591, 24 h.
For assay [16], the system named is Bacillus subtilis. Description: Antibacterial activity against Bacillus subtilis after 24 hrs by microdilution method. It counts as functional.

As to `CCCCCCCCCCCCCCCCOP(=O)(CCN(CCCN)CCCN)OC[C@H]1O[C@@H](n2ccc(=O)[nH]c2=O)[C@H](O)[C@@H]1O` (stereo partly specified), the minimum inhibitory concentration (MIC) in assay [1] is 3.13 µg/mL (≈ 4.54 µM); in assay [2], 3.13 µg/mL (≈ 4.54 µM); in assay [3], 12.5 µg/mL (≈ 18.1 µM); in assay [4], 6.25 µg/mL (≈ 9.06 µM); in assay [5] it was 3.13 µg/mL (≈ 4.54 µM); in [6] it was 50 µg/mL (≈ 72.5 µM). Further, the MIC came out at 3.13 µg/mL (≈ 4.54 µM) in assay [7]; 25 µg/mL (≈ 36.2 µM) in assay [8]; 3.13 µg/mL (≈ 4.54 µM) in assay [9]; 3.13 µg/mL (≈ 4.54 µM) in assay [10]; 3.13 µg/mL (≈ 4.54 µM) in assay [11]; 3.13 µg/mL (≈ 4.54 µM) in [12]. For the same compound, the MIC in assay [13] is 50 µg/mL (≈ 72.5 µM); in [14], 3.13 µg/mL (≈ 4.54 µM); in [15], 25 µg/mL (≈ 36.2 µM); in assay [16] it was 0.78 µg/mL (≈ 1.13 µM).

Take `CCCCCCCCCCCCCCCOP(=O)(CCN1C[C@@H](O)[C@@H](N)C1)OC[C@H]1O[C@@H](n2ccc(=O)[nH]c2=O)[C@H](O)[C@@H]1O` (stereo partly specified): the MIC in [1] is 6.25 µg/mL (≈ 9.66 µM); in assay [2] it was 12.5 µg/mL (≈ 19.3 µM); in [3] it was 12.5 µg/mL (≈ 19.3 µM); in [4], 25 µg/mL (≈ 38.7 µM); in assay [5], 6.25 µg/mL (≈ 9.66 µM); in [6], > 200 µg/mL. Also, the MIC in [7] worked out at 3.13 µg/mL (≈ 4.84 µM); in assay [8] it was 50 µg/mL (≈ 77.3 µM); in assay [9], 6.25 µg/mL (≈ 9.66 µM); in assay [10] it was 6.25 µg/mL (≈ 9.66 µM); in assay [11] it was 6.25 µg/mL (≈ 9.66 µM); in [12], 12.5 µg/mL (≈ 19.3 µM). The MIC worked out at 12.5 µg/mL (≈ 19.3 µM) in assay [13], 6.25 µg/mL (≈ 9.66 µM) in assay [14], 25 µg/mL (≈ 38.7 µM) in [15] and 6.25 µg/mL (≈ 9.66 µM) in assay [16].

In the case of `CCCCCCCCCCCCCCCOP(=O)(CCN(CCN)CCN)OC[C@H]1O[C@@H](n2ccc(=O)[nH]c2=O)[C@H](O)[C@@H]1O` (stereo partly specified), the MIC came out at 3.13 µg/mL (≈ 4.83 µM) in [1]; 1.56 µg/mL (≈ 2.41 µM) in assay [2]; 6.25 µg/mL (≈ 9.65 µM) in assay [3]; 1.56 µg/mL (≈ 2.41 µM) in assay [4]; 1.56 µg/mL (≈ 2.41 µM) in assay [5]; 50 µg/mL (≈ 77.2 µM) in [6]. The MIC in [7] is 3.13 µg/mL (≈ 4.83 µM); in assay [8] it was 100 µg/mL (≈ 154 µM); in assay [9], 1.56 µg/mL (≈ 2.41 µM); in assay [10] it was 3.13 µg/mL (≈ 4.83 µM); in assay [11], 1.56 µg/mL (≈ 2.41 µM); in assay [12], 1.56 µg/mL (≈ 2.41 µM). The MIC in assay [13] worked out at 12.5 µg/mL (≈ 19.3 µM); in [14] it was 1.56 µg/mL (≈ 2.41 µM); in assay [15], 6.25 µg/mL (≈ 9.65 µM); in assay [16] it was 0.78 µg/mL (≈ 1.2 µM).

On to `CCCCCCCCCCCCCCOP(=O)(CCN(CCN)CCN)OC[C@H]1O[C@@H](n2ccc(=O)[nH]c2=O)[C@H](O)[C@@H]1O` (stereo partly specified), for which the MIC in [1] was 6.25 µg/mL (≈ 9.86 µM); in [2] it was 6.25 µg/mL (≈ 9.86 µM); in [3], 25 µg/mL (≈ 39.4 µM); in assay [4], 3.13 µg/mL (≈ 4.94 µM); in [5] it was 3.13 µg/mL (≈ 4.94 µM); in assay [6] it was 12.5 µg/mL (≈ 19.7 µM). Besides, the MIC in assay [7] was 6.25 µg/mL (≈ 9.86 µM); in assay [8] it was 100 µg/mL (≈ 158 µM); in assay [9], 6.25 µg/mL (≈ 9.86 µM); in assay [10], 25 µg/mL (≈ 39.4 µM); in [11] it was 12.5 µg/mL (≈ 19.7 µM); in [12], 3.13 µg/mL (≈ 4.94 µM). Besides, the minimum inhibitory concentration (MIC) in assay [13] was found to be 100 µg/mL (≈ 158 µM); in assay [14] it was 12.5 µg/mL (≈ 19.7 µM); in assay [15], 12.5 µg/mL (≈ 19.7 µM); in assay [16] it was 6.25 µg/mL (≈ 9.86 µM).

As for `CCCCCCCCCCCCCCCCOP(=O)(CCN(CCN)CCN)OC[C@H]1O[C@@H](n2ccc(=O)[nH]c2=O)[C@H](O)[C@@H]1O` (stereo partly specified), the MIC in assay [1] worked out at 1.56 µg/mL (≈ 2.36 µM); in assay [2], 3.13 µg/mL (≈ 4.73 µM); in assay [3] it was 6.25 µg/mL (≈ 9.44 µM); in assay [4], 3.13 µg/mL (≈ 4.73 µM); in assay [5], 3.13 µg/mL (≈ 4.73 µM); in assay [6] it was 25 µg/mL (≈ 37.8 µM). Further, the MIC in assay [7] amounted to 1.56 µg/mL (≈ 2.36 µM); in [8], 50 µg/mL (≈ 75.5 µM); in assay [9] it was 3.13 µg/mL (≈ 4.73 µM); in [10], 6.25 µg/mL (≈ 9.44 µM); in [11] it was 3.13 µg/mL (≈ 4.73 µM); in [12] it was 3.13 µg/mL (≈ 4.73 µM). The MIC in assay [13] was determined as 12.5 µg/mL (≈ 18.9 µM); in assay [14], 3.13 µg/mL (≈ 4.73 µM); in assay [15], 6.25 µg/mL (≈ 9.44 µM); in assay [16], 1.56 µg/mL (≈ 2.36 µM).

As to `CCCCCCCCCCCCCCCCOP(=O)(CCN(CCCNC(=N)N)CCCNC(=N)N)OC[C@H]1O[C@@H](n2ccc(=O)[nH]c2=O)[C@H](O)[C@@H]1O` (stereo partly specified), the MIC in [1] stood at 1.56 µg/mL (≈ 2.02 µM); in [2], 3.13 µg/mL (≈ 4.04 µM); in assay [3], 3.13 µg/mL (≈ 4.04 µM); in assay [4], 3.13 µg/mL (≈ 4.04 µM); in assay [5], 1.56 µg/mL (≈ 2.02 µM); in assay [6], 50 µg/mL (≈ 64.6 µM). For the same compound, the MIC in assay [7] was found to be 1.56 µg/mL (≈ 2.02 µM); in [8] it was 25 µg/mL (≈ 32.3 µM); in assay [9] it was 1.56 µg/mL (≈ 2.02 µM); in [10], 3.13 µg/mL (≈ 4.04 µM); in assay [11], 1.56 µg/mL (≈ 2.02 µM); in assay [12] it was 1.56 µg/mL (≈ 2.02 µM). For the same compound, the minimum inhibitory concentration (MIC) turned out to be 6.25 µg/mL (≈ 8.08 µM) in assay [13], 1.56 µg/mL (≈ 2.02 µM) in [14], 3.13 µg/mL (≈ 4.04 µM) in assay [15] and 0.78 µg/mL (≈ 1.01 µM) in [16].
